The NIST ThermoML archive (doi:10.1016/j.tca.2006.01.013)
± gives the expanded uncertainty stated by the source.

Details: 101.33 kPa, Liquid, Vibrating tube method

Work on `NCCN` [ethane-1,2-diamine] yielded a mass density (285.15 K) of 904.27 ± 0.47 kg/m3, a mass density (285.65 K) of 903.81 ± 0.47 kg/m3 and a mass density (286.15 K) of 903.34 ± 0.47 kg/m3. It also gave a mass density (286.65 K) of 902.87 ± 0.47 kg/m3, a mass density (287.15 K) of 902.41 ± 0.47 kg/m3 and a mass density (287.65 K) of 901.94 ± 0.47 kg/m3. The mass density (288.15 K) was 901.47 ± 0.47 kg/m3, the mass density (288.65 K) was 901 ± 0.47 kg/m3 and the mass density (289.15 K) was 900.53 ± 0.47 kg/m3. It also gave a mass density (289.65 K) of 900.07 ± 0.47 kg/m3, a mass density (290.15 K) of 899.6 ± 0.47 kg/m3 and a mass density (290.65 K) of 899.13 ± 0.47 kg/m3. The mass density (291.15 K) was 898.66 ± 0.46 kg/m3, the mass density (291.65 K) was 898.19 ± 0.46 kg/m3 and the mass density (292.15 K) was 897.72 ± 0.46 kg/m3. It also gave a mass density (292.65 K) of 897.25 ± 0.46 kg/m3, a mass density (293.15 K) of 896.78 ± 0.46 kg/m3 and a mass density (293.65 K) of 896.31 ± 0.46 kg/m3. It also gave a mass density (294.15 K) of 895.85 ± 0.46 kg/m3, a mass density (294.65 K) of 895.38 ± 0.46 kg/m3 and a mass density (295.15 K) of 894.91 ± 0.46 kg/m3. The mass density (295.65 K) was 894.44 ± 0.46 kg/m3, the mass density (296.15 K) was 893.97 ± 0.46 kg/m3 and the mass density (296.65 K) was 893.5 ± 0.46 kg/m3. For the same compound, the mass density (297.15 K) was 893.03 ± 0.46 kg/m3, the mass density (297.65 K) was 892.56 ± 0.46 kg/m3 and the mass density (298.15 K) was 892.09 ± 0.46 kg/m3. It also gave a mass density (298.65 K) of 891.62 ± 0.46 kg/m3, a mass density (299.15 K) of 891.14 ± 0.46 kg/m3 and a mass density (299.65 K) of 890.67 ± 0.46 kg/m3. For the same compound, the mass density (300.15 K) was 890.2 ± 0.46 kg/m3, the mass density (300.65 K) was 889.73 ± 0.46 kg/m3 and the mass density (301.15 K) was 889.26 ± 0.46 kg/m3. It also gave a mass density (301.65 K) of 888.79 ± 0.46 kg/m3, a mass density (302.15 K) of 888.32 ± 0.46 kg/m3 and a mass density (302.65 K) of 887.85 ± 0.46 kg/m3. It also gave a mass density (303.15 K) of 887.38 ± 0.46 kg/m3, a mass density (303.65 K) of 886.9 ± 0.46 kg/m3 and a mass density (304.15 K) of 886.43 ± 0.46 kg/m3. The mass density (304.65 K) was 885.96 ± 0.46 kg/m3, the mass density (305.15 K) was 885.49 ± 0.46 kg/m3 and the mass density (305.65 K) was 885.02 ± 0.46 kg/m3. For the same compound, the mass density (306.15 K) was 884.54 ± 0.46 kg/m3, the mass density (306.65 K) was 884.07 ± 0.46 kg/m3 and the mass density (307.15 K) was 883.6 ± 0.46 kg/m3. For the same compound, the mass density (307.65 K) was 883.12 ± 0.46 kg/m3, the mass density (308.15 K) was 882.65 ± 0.46 kg/m3 and the mass density (308.65 K) was 882.18 ± 0.46 kg/m3. For the same compound, the mass density (309.15 K) was 881.7 ± 0.46 kg/m3, the mass density (309.65 K) was 881.23 ± 0.46 kg/m3 and the mass density (310.15 K) was 880.76 ± 0.46 kg/m3. It also gave a mass density (310.65 K) of 880.28 ± 0.46 kg/m3, a mass density (311.15 K) of 879.81 ± 0.46 kg/m3 and a mass density (311.65 K) of 879.33 ± 0.46 kg/m3. For the same compound, the mass density (312.15 K) was 878.86 ± 0.46 kg/m3, the mass density (312.65 K) was 878.38 ± 0.46 kg/m3 and the mass density (313.15 K) was 877.91 ± 0.46 kg/m3. The mass density (313.65 K) was 877.44 ± 0.46 kg/m3, the mass density (314.15 K) was 876.96 ± 0.46 kg/m3 and the mass density (314.65 K) was 876.48 ± 0.46 kg/m3. It also gave a mass density (315.15 K) of 876.01 ± 0.46 kg/m3, a mass density (315.65 K) of 875.53 ± 0.46 kg/m3 and a mass density (316.15 K) of 875.06 ± 0.46 kg/m3. The mass density (316.65 K) was 874.58 ± 0.46 kg/m3, the mass density (317.15 K) was 874.11 ± 0.46 kg/m3 and the mass density (317.65 K) was 873.63 ± 0.46 kg/m3. The mass density (318.15 K) was 873.15 ± 0.46 kg/m3, the mass density (318.65 K) was 872.68 ± 0.46 kg/m3 and the mass density (319.15 K) was 872.2 ± 0.46 kg/m3. The mass density (319.65 K) was 871.72 ± 0.46 kg/m3, the mass density (320.15 K) was 871.25 ± 0.45 kg/m3 and the mass density (320.65 K) was 870.77 ± 0.45 kg/m3. It also gave a mass density (321.15 K) of 870.29 ± 0.45 kg/m3, a mass density (321.65 K) of 869.81 ± 0.45 kg/m3 and a mass density (322.15 K) of 869.34 ± 0.45 kg/m3. It also gave a mass density (322.65 K) of 868.86 ± 0.45 kg/m3, a mass density (323.15 K) of 868.38 ± 0.45 kg/m3 and a mass density (323.65 K) of 867.9 ± 0.45 kg/m3. It also gave a mass density (324.15 K) of 867.42 ± 0.45 kg/m3, a mass density (324.65 K) of 866.94 ± 0.45 kg/m3 and a mass density (325.15 K) of 866.47 ± 0.45 kg/m3. The mass density (325.65 K) was 865.99 ± 0.45 kg/m3, the mass density (326.15 K) was 865.51 ± 0.45 kg/m3 and the mass density (326.65 K) was 865.03 ± 0.45 kg/m3. It also gave a mass density (327.15 K) of 864.55 ± 0.45 kg/m3, a mass density (327.65 K) of 864.07 ± 0.45 kg/m3 and a mass density (328.15 K) of 863.59 ± 0.45 kg/m3. The mass density (328.65 K) was 863.11 ± 0.45 kg/m3, the mass density (329.15 K) was 862.63 ± 0.45 kg/m3 and the mass density (329.65 K) was 862.14 ± 0.45 kg/m3. It also gave a mass density (330.15 K) of 861.66 ± 0.45 kg/m3, a mass density (330.65 K) of 861.18 ± 0.45 kg/m3 and a mass density (331.15 K) of 860.7 ± 0.45 kg/m3. The mass density (331.65 K) was 860.22 ± 0.45 kg/m3, the mass density (332.15 K) was 859.74 ± 0.45 kg/m3 and the mass density (332.65 K) was 859.25 ± 0.45 kg/m3. The mass density (333.15 K) was 858.77 ± 0.45 kg/m3, the mass density (333.65 K) was 858.29 ± 0.45 kg/m3 and the mass density (334.15 K) was 857.81 ± 0.45 kg/m3. The mass density (334.65 K) was 857.32 ± 0.45 kg/m3, the mass density (335.15 K) was 856.84 ± 0.45 kg/m3 and the mass density (335.65 K) was 856.36 ± 0.45 kg/m3. The mass density (336.15 K) was 855.87 ± 0.45 kg/m3, the mass density (336.65 K) was 855.39 ± 0.45 kg/m3 and the mass density (337.15 K) was 854.91 ± 0.45 kg/m3. The mass density (337.65 K) was 854.42 ± 0.45 kg/m3, the mass density (338.15 K) was 853.93 ± 0.45 kg/m3 and the mass density (338.65 K) was 853.45 ± 0.45 kg/m3. It also gave a mass density (339.15 K) of 852.96 ± 0.45 kg/m3, a mass density (339.65 K) of 852.48 ± 0.45 kg/m3 and a mass density (340.15 K) of 851.99 ± 0.45 kg/m3. The mass density (340.65 K) was 851.51 ± 0.45 kg/m3, the mass density (341.15 K) was 851.02 ± 0.45 kg/m3 and the mass density (341.65 K) was 850.53 ± 0.45 kg/m3. For the same compound, the mass density (342.15 K) was 850.05 ± 0.45 kg/m3, the mass density (342.65 K) was 849.56 ± 0.45 kg/m3 and the mass density (343.15 K) was 849.07 ± 0.45 kg/m3. It also gave a mass density (343.65 K) of 848.58 ± 0.45 kg/m3, a mass density (344.15 K) of 848.1 ± 0.45 kg/m3 and a mass density (344.65 K) of 847.61 ± 0.45 kg/m3. It also gave a mass density (345.15 K) of 847.12 ± 0.45 kg/m3, a mass density (345.65 K) of 846.63 ± 0.45 kg/m3 and a mass density (346.15 K) of 846.14 ± 0.45 kg/m3. It also gave a mass density (346.65 K) of 845.66 ± 0.45 kg/m3, a mass density (347.15 K) of 845.17 ± 0.45 kg/m3 and a mass density (347.65 K) of 844.68 ± 0.45 kg/m3. It also gave a mass density (348.15 K) of 844.19 ± 0.45 kg/m3, a mass density (348.65 K) of 843.7 ± 0.45 kg/m3 and a mass density (349.15 K) of 843.21 ± 0.45 kg/m3. It also gave a mass density (349.65 K) of 842.72 ± 0.45 kg/m3, a mass density (350.15 K) of 842.23 ± 0.45 kg/m3 and a mass density (350.65 K) of 841.75 ± 0.45 kg/m3. It also gave a mass density (351.15 K) of 841.26 ± 0.45 kg/m3, a mass density (351.65 K) of 840.76 ± 0.44 kg/m3 and a mass density (352.15 K) of 840.27 ± 0.44 kg/m3. The mass density (352.65 K) was 839.78 ± 0.44 kg/m3, the mass density (353.15 K) was 839.29 ± 0.44 kg/m3 and the mass density (353.65 K) was 838.8 ± 0.44 kg/m3. For the same compound, the mass density (354.15 K) was 838.31 ± 0.44 kg/m3, the mass density (354.65 K) was 837.81 ± 0.44 kg/m3 and the mass density (355.14 K) was 837.32 ± 0.44 kg/m3. For the same compound, the mass density (355.65 K) was 836.83 ± 0.44 kg/m3, the mass density (356.15 K) was 836.33 ± 0.44 kg/m3 and the mass density (356.64 K) was 835.84 ± 0.44 kg/m3. For the same compound, the mass density (357.15 K) was 835.35 ± 0.44 kg/m3, the mass density (357.65 K) was 834.85 ± 0.44 kg/m3 and the mass density (358.14 K) was 834.36 ± 0.44 kg/m3. For the same compound, the mass density (358.64 K) was 833.86 ± 0.44 kg/m3, the mass density (359.14 K) was 833.37 ± 0.44 kg/m3 and the mass density (359.64 K) was 832.87 ± 0.44 kg/m3. For the same compound, the mass density (360.14 K) was 832.38 ± 0.44 kg/m3, the mass density (360.64 K) was 831.88 ± 0.44 kg/m3 and the mass density (361.14 K) was 831.38 ± 0.44 kg/m3. For the same compound, the mass density (361.65 K) was 830.89 ± 0.44 kg/m3, the mass density (362.15 K) was 830.39 ± 0.44 kg/m3 and the mass density (362.65 K) was 829.89 ± 0.44 kg/m3. The mass density (363.15 K) was 829.4 ± 0.44 kg/m3.
